# Assay results from patent US4002690A (priority 1974, dated 1977).
# Structures can show the parent of a compound that is named as a salt.
# Legend:
# [1] = tested on: Newcastle disease virus (NDV); test: microbe, parasite or virus in culture; format: cell-based, Newcastle disease virus (host: chick embryo); conditions: for inhibition at 39 µg/mL / inhibition at 78 µg/mL / inhibition at 156 µg/mL: avian paramyxovirus 1, in Gallus gallus, 48 h, read-out: % Inhibition of NDV Multiplications
# [2] = Antiviral activity in vivo (statement only); conditions: no test details given
SMILES,"antiviral activity compared with Amantadine hydrochloride ([1]; NDV, in vitro, chick embryo monolayer tissue culture)",inhibition at 39 µg/mL [1],inhibition at 78 µg/mL [1],inhibition at 156 µg/mL [1],virus replication in the tissue culture ([1]; containing above 39 μg/ml of carbinol (II)),antiviral activity in vivo [2]
OCC12CCCC3CC(CCC31)C2 (stereo not drawn) [II],extremely superior to that of Amantadine hydrochloride,0%,91.2%,99.8%,almost completely inhibited,potent antiviral activity in vivo
"NC12CC3CC(CC(C3)C1)C2 [Amantadine.HCl, reference compound]",–,0%,0%,0%,–,–
